Data on seven molecules can be found in paper PMC8775252, “Characterization of Alternaria porri causing onion purple blotch and its antifungal compound magnolol identified from Caryodaphnopsis baviensis” (PLoS ONE, 2022).

Converted amounts (≈) assume the structure as drawn. Where two headings read alike, the source gives them in different places.

Series [1] concerns Colletotrichum cocodes. Kind of series: microbe, parasite or virus in culture. In kind it is cell-based. Conditions: 72 h, 3 days, 25°C.
In series [2] the test system is Magnaporthe oryzae. Kind of series: microbe, parasite or virus in culture. Format: cell-based. Conditions: Pyricularia oryzae, 72 h; 3 days, 25°C.
Series [3] deals with Fusarium oxysporum. Kind of series: microbe, parasite or virus in culture. In kind it is cell-based, Fusarium oxysporum f. sp. lycopersici. Conditions: 72 h, 3 days, 25°C.
Series [4] has as its system Botrytis cinerea. In words: microbe, parasite or virus in culture. Format: cell-based. Conditions: 72 h, 3 days, 25°C.
Series [5] deals with Alternaria brassicicola. Kind of series: microbe, parasite or virus in culture. In kind it is cell-based. Conditions: 72 h, 3 days, 25°C.
The subject of series [6] is Phytophthora infestans. Kind of series: microbe, parasite or virus in culture. In kind it is cell-based. Conditions: 72 h, 3 days, 25°C.
Series [7] relates to Alternaria porri. Kind of series: microbe, parasite or virus in culture. Conditions: 72 h, 3 days, 25°C. Format: cell-based.
Series [8] has as its target OXPHOS complex II (Bos taurus, UniProt P31039+P35720+Q3T189+Q95123). In words: biochemical.
In series [9] the target is OXPHOS complex III (Bos taurus, UniProt P00125+P00157+P13272). Format: biochemical.
The test system of series [10] is Alternaria porri. In words: microbe, parasite or virus in culture. In kind it is cell-based.
Series [11] deals with OXPHOS complex I. Format: biochemical.
Series [12] relates to Alternaria porri. Kind of series: microbe, parasite or virus in culture. Format: cell-based. The source holds these as a separate data set.
Series [13] deals with onion plants. Conditions: in vivo.
For series [14], the target named is OXPHOS complex V (Bos taurus, UniProt P00829+P19483). In words: MitoTox Complete OXPHOS Activity Assay. In kind it is biochemical.
The target in series [15] is OXPHOS complex IV (Bos taurus, UniProt P00396+P68530). Kind of series: biochemical.
The conditions of series [16]: in vivo, cited from earlier work.
In series [17] the test system is onion purple blotch (Alternaria porri). Format: in vivo, Allium cepa L. Conditions: sprayed at 100 μg/ml, 5 dpi.

OXPHOS complex II, sequence (Q95123 56-158): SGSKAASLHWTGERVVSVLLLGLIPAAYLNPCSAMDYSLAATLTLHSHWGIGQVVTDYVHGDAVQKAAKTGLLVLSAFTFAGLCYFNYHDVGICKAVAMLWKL
OXPHOS complex II, sequence (P31039 44-665): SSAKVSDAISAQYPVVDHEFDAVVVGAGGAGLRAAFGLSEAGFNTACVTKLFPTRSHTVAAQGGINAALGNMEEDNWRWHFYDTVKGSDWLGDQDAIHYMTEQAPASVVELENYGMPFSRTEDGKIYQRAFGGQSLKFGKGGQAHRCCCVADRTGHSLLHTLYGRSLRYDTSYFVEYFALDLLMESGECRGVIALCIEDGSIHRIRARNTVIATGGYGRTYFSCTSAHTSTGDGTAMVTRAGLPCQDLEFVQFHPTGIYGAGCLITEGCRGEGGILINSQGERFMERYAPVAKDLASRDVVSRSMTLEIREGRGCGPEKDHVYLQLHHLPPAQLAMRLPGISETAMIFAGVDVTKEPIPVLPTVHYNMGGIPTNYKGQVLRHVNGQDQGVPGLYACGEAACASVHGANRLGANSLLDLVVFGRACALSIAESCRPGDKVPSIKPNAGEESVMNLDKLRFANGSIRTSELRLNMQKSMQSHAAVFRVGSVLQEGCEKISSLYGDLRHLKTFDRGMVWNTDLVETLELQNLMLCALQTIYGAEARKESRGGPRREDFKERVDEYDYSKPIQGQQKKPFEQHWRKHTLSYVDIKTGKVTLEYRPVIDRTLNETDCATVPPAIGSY
OXPHOS complex II, sequence (P35720 30-169): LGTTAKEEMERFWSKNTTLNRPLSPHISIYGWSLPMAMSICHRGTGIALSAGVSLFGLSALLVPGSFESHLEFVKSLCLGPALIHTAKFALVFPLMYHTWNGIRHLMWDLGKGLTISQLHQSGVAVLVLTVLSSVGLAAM
OXPHOS complex II, sequence (Q3T189 29-280): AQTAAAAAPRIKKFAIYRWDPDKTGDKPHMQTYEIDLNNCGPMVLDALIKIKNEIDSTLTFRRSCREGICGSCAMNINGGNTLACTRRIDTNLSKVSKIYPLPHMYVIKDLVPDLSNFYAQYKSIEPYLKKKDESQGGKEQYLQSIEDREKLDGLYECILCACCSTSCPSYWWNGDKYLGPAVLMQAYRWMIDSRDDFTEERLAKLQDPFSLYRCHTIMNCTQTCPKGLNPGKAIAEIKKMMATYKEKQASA

With `C[C@@H]1C[C@@H]([C@H](O)CC2CC(=O)NC(=O)C2)C(=O)[C@@H](C)C1` [Cycloheximide, cycloheximide, reference compound], the MIC in series [1] stood at 1.6 µg/mL (≈ 5.69 µM); in series [2], 6.3 µg/mL (≈ 22.4 µM); in [3] it was 200 µg/mL (≈ 711 µM); in series [4] it was 50 µg/mL (≈ 178 µM); in series [5], 6.3 µg/mL (≈ 22.4 µM); in [6], 1.6 µg/mL (≈ 5.69 µM). In addition, the MIC in series [7] was 6.3 µg/mL (≈ 22.4 µM).
Consider `O=C(CC(=O)C(F)(F)F)c1cccs1` [TTFA, thenoyltrifluoroacetone, reference compound], for which, in series [8], the “effect on complex II activity” value is “suppressed each complex activity in a concentration-dependent manner”.
As for `CCCCCC[C@H]1C(=O)O[C@H](C)[C@H](NC(=O)c2cccc(NC=O)c2O)C(=O)O[C@@H](C)[C@@H]1OC(=O)CC(C)C` [antimycin A, reference compound], the “effect on complex III activity” value in series [9] is on record as “suppressed each complex activity in a concentration-dependent manner”.
On to `C=CCc1ccc(O)c(-c2cc(CC=C)ccc2O)c1` [magnolol, 5,5’-di-2-propenyl-1,1’-biphenyl-2,2’-diol], for which the MIC in series [1] is 6.3 µg/mL (≈ 23.7 µM); in series [2], 3.1 µg/mL (≈ 11.6 µM); in [10] (Alternaria porri, read-out: MIC, mycelial growth completely inhibited), 100 µg/mL (≈ 375 µM); in series [12] (read-out: MIC, spore germination completely inhibited) it was 11 µg/mL (≈ 41.3 µM); in [3], 25 µg/mL (≈ 93.9 µM); in series [4], 25 µg/mL (≈ 93.9 µM). For the same molecule, the MIC was 6.3 µg/mL (≈ 23.7 µM) in [5], more than 100 µg/mL in [6] and 6.3 µg/mL (≈ 23.7 µM) in series [7]. Besides, the IC50 (commonly the point on the concentration scale where inhibition reaches its midpoint) is 8.3 µM in series [8]; 5.4 µg/mL (≈ 20.3 µM) in series [10] (Alternaria porri, 168 h, read-out: IC50, mycelial growth); 4.5 µg/mL (≈ 16.9 µM) in series [12] (10 h, read-out: IC50, spore germination); 19.4 µM in series [9] (read-out: IC50, complex III activity); 4.7 µM in series [14] (read-out: IC50, complex V activity); 10.9 µM in series [15]. Also, in series [10], the “inhibitory activity on mycelial growth compared with mancozeb” value was “more potent than that of the broad-spectrum fungicide mancozeb”. In addition, the “activity of complex I” value in series [11] came out at 78%. Further, the “effect on complex I activity” value in series [11] is on record as “decreased by the magnolol treatment in a concentration-dependent manner”. The phytotoxic symptoms result in series [13] is reported as “no phytotoxic symptoms”. Also, the “excreted in the feces and urine” value in series [16] (po) is more than 90%. For the same molecule, the “oral dose remaining circulating in the free form” value in series [16] was 1%.
`CC[C@H]1/C=C/C=C/C[C@@H](C)[C@H](O)[C@@](C)(O)C(=O)[C@@H](C)[C@H](O)[C@@H](C)C(=O)[C@@H](C)[C@H](O)[C@@H](C)/C=C/C(=O)O[C@@H]2[C@H](C)[C@H](CC1)O[C@]1(CC[C@H](C)[C@H](C[C@@H](C)O)O1)[C@H]2C` [oligomycin, reference compound]: in series [14] (result in words, S6 Fig), the “effect on complex V activity” value was “suppressed each complex activity in a concentration-dependent manner”.
For the molecule `C=C(C)[C@H]1Cc2c(ccc3c2O[C@@H]2COc4cc(OC)c(OC)cc4[C@@H]2C3=O)O1` [rotenone, reference compound], the “effect on complex I activity” value in series [11] was “suppressed each complex activity in a concentration-dependent manner”.
mancozeb registered a disease control value in [17] of 95%.
